The values below come from patent publication US9115127B2 (AMGEN INC., priority 2010, dated 2015).

Usually IC50 stands for the concentration that inhibits the measured activity by half. A higher IC50 goes with a need for much substance.

Where a name gives a salt, the structure may show the parent alone.

In the assay the target is T1, wild-type human ALK (cytoplasmic domain, amino acids 1058-1620, N-terminal GST fusion) (Homo sapiens, UniProt Q9UM73).
T1 construct: The cytoplasmic domain (amino acids 1058-1620) of wild-type human ALK; GST (N); made in house; host or cells: SF9 insect cells
T1 sequence (Q9UM73 1058-1620): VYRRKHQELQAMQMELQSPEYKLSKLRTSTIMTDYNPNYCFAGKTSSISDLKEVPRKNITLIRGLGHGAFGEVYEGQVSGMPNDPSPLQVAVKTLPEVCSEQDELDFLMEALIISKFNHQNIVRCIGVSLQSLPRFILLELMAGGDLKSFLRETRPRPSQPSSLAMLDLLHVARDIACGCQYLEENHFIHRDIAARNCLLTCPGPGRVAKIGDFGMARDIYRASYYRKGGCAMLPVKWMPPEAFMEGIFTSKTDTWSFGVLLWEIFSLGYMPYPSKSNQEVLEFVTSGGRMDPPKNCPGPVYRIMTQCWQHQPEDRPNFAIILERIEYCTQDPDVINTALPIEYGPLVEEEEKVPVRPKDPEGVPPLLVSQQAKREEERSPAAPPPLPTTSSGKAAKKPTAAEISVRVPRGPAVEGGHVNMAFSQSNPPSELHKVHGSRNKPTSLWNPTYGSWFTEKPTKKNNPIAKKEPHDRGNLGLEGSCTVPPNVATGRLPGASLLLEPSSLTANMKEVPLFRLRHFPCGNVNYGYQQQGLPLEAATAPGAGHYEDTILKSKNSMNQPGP
Kind of assay: ALK Inhibition in Enzyme Assay (Lance TR-FRET kinase assay). Type of assay: biochemical. In short, it runs like this: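 Purified enzyme phosphorylated a biotinylated peptide substrate for 90 minutes at room temperature. Reactions were stopped with 20 mM EDTA in 50 mM Tris (pH 7.5), 100 mM NaCl, 0.05% BSA, 0.1% Tween-20. Phosphopeptide was detected by TR-FRET with SA-APC and Eu-W1024 anti-phosphotyrosine antibody PT66, excitation 320 nm.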
For orientation: Time-resolved FRET reads energy transfer from a long-lived donor to a nearby acceptor.
For `CC(C)(O)C1CCN(Cc2ccc3[nH]/c(=N\C(=O)c4ccc(F)cc4)n([C@H]4CC[C@@H](C(=O)N5CCNCC5)CC4)c3c2)CC1` [Example 211, (E)-4-Fluoro-N-(6-((4-(2-hydroxypropan-2-yl)piperidin-1-yl)methyl)-1-(cis-4-(piperazine-1-carbonyl)cyclohexyl)-1H-benzo[d]imidazol-2(3H)-ylidene)benzamide], the IC50 is less than 50 nM.

In turn, `CC(C)(O)C1CCN(Cc2ccc3[nH]/c(=N\C(=O)c4ccc(F)cc4)n([C@H]4CC[C@@H](C(N)=O)CC4)c3c2)CC1` [Example 212, (E)-N-(1-(cis-4-Carbamoylcyclohexyl)-6-((4-(2-hydroxypropan-2-yl)piperidin-1-yl)methyl)-1H-benzo[d]imidazol-2(3H)-ylidene)-4-fluorobenzamide] displayed an IC50 of less than 50 nM.

As to `CONC(=O)[C@H]1CC[C@@H](n2/c(=N/C(=O)c3ccc(F)cc3)[nH]c3ccc(CN4CCC(C(C)(C)O)CC4)cc32)CC1` [Example 213, (E)-4-Fluoro-N-(6-((4-(2-hydroxypropan-2-yl)piperidin-1-yl)methyl)-1-(cis-4-(methoxycarbamoyl)cyclohexyl)-1H-benzo[d]imidazol-2(3H)-ylidene)benzamide], the IC50 was less than 50 nM.

With `CC(C)(CO)NC(=O)[C@H]1CC[C@@H](n2/c(=N/C(=O)c3ccc(F)cc3)[nH]c3ccc(CN4CCC(C(C)(C)O)CC4)cc32)CC1` [Example 214, (E)-4-Fluoro-N-(1-(cis-4-(1-hydroxy-2-methylpropan-2-ylcarbamoyl)cyclohexyl)-6-((4-(2-hydroxypropan-2-yl)piperidin-1-yl)methyl)-1H-benzo[d]imidazol-2(3H)-ylidene)benzamide], the IC50 was less than 50 nM.

In the case of `CC(C)(C)NC(=O)[C@H]1CC[C@@H](n2/c(=N/C(=O)c3ccc(F)cc3)[nH]c3ccc(CN4CCC(C(C)(C)O)CC4)cc32)CC1` [Example 215, (E)-N-(1-(cis-4-(tert-Butylcarbamoyl)cyclohexyl)-6-((4-(2-hydroxypropan-2-yl)piperidin-1-yl)methyl)-1H-benzo[d]imidazol-2(3H)-ylidene)-4-fluorobenzamide], the IC50 was less than 50 nM.

For the compound `CC(C)(O)C1CCN(Cc2ccc3[nH]/c(=N\C(=O)c4ccc(F)cc4)n([C@H]4CC[C@@H](C(=O)N5CCCCC5)CC4)c3c2)CC1` [Example 216, (E)-4-Fluoro-N-(6-((4-(2-hydroxypropan-2-yl)piperidin-1-yl)methyl)-1-(cis-4-(piperidine-1-carbonyl)cyclohexyl)-1H-benzo[d]imidazol-2(3H)-ylidene)benzamide], the IC50 is less than 50 nM.

`CC(C)(O)C1CCN(Cc2ccc3[nH]/c(=N\C(=O)c4ccc(F)cc4)n([C@H]4CC[C@@H](C(=O)N5[C@@H]6CC[C@H]5CNC6)CC4)c3c2)CC1` [Example 217, (E)-N-(1-(cis-4-(3,8-Fiazabicyclo[3.2.1]octane-8-carbonyl)cyclohexyl)-6-((4-(2-hydroxypropan-2-yl)piperidin-1-yl)methyl)-1H-benzo[d]imidazol-2(3H)-ylidene)-4-fluorobenzamide dihydrochloride] had an IC50 of less than 50 nM.

On to `CC(C)NC(=O)[C@H]1CC[C@@H](n2/c(=N/C(=O)c3ccc(F)cc3)[nH]c3ccc(N4CCOCC4)cc32)CC1` [Example 218, (E)-4-Fluoro-N-(1-(cis-4-(isopropylcarbamoyl)cyclohexyl)-6-morpholino-1H-benzo[d]imidazol-2(3H)-ylidene)benzamide], for which the IC50 was less than 50 nM.

On to `CC(C)NC(=O)[C@H]1CC[C@@H](n2/c(=N/C(=O)c3ccc(F)cc3)[nH]c3ccc(Cl)cc32)CC1` [Example 219, (E)-N-(6-Chloro-1-(cis-4-(isopropylcarbamoyl)cyclohexyl)-1H-benzo[d]imidazol-2(3H)-ylidene)-4-fluorobenzamide], for which the IC50 is less than 50 nM.

On to `CC(C)NC(=O)[C@H]1CC[C@@H](n2/c(=N/C(=O)c3ccc(F)cc3)[nH]c3ccc(F)cc32)CC1` [Example 220, (E)-4-Fluoro-N-(6-fluoro-1-(cis-4-(isopropylcarbamoyl)cyclohexyl)-1H-benzo[d]imidazol-2(3H)-ylidene)benzamide], for which the IC50 is less than 50 nM.

In turn, `CC(C)NC(=O)[C@H]1CC[C@@H](n2/c(=N/C(=O)c3ccc(F)cc3)[nH]c3ccc(-n4cncn4)cc32)CC1` [Example 221, (E)-4-Fluoro-N-(1-(cis-4-(isopropylcarbamoyl)cyclohexyl)-6-(1H-1,2,4-triazol-1-yl)-1H-benzo[d]imidazol-2(3H)-ylidene)benzamide] gave a half-maximal inhibitory concentration (IC50) of less than 50 nM.

`CC(C)NC(=O)[C@H]1CC[C@@H](n2/c(=N/C(=O)c3ccc(F)cc3)[nH]c3cnc(N4CCOCC4)cc32)CC1` [Example 222, (E)-4-Fluoro-N-(1-(cis-4-(isopropylcarbamoyl)cyclohexyl)-6-morpholino-1H-imidazo[4,5-c]pyridin-2(3H)-ylidene)benzamide] showed an IC50 of less than 50 nM.

`CC(C)NC(=O)[C@H]1CC[C@@H](n2/c(=N/C(=O)c3ccc(F)cc3)[nH]c3cnc(N4CCS(=O)(=O)CC4)cc32)CC1` [Example 223, N-((2E)-6-(1,1-Dioxido-4-thiomorpholinyl)-1-(cis-4-((1-methylethyl)carbamoyl)cyclohexyl)-1,3-dihydro-2H-imidazo[4,5-c]pyridin-2-ylidene)-4-fluorobenzamide] returned an IC50 of less than 50 nM.

On to `CC(C)NC(=O)[C@H]1CC[C@@H](n2/c(=N/C(=O)c3ccc(F)cc3)[nH]c3cnc(N4CCN(S(C)(=O)=O)CC4)cc32)CC1` [Example 224, (E)-4-Fluoro-N-(1-(cis-4-(isopropylcarbamoyl)cyclohexyl)-6-(4-(methylsulfonyl)-piperazin-1-yl)-1H-imidazo[4,5-c]pyridin-2(3H)-ylidene)benzamide], for which the IC50 was less than 50 nM.

Regarding `CC(C)NC(=O)[C@H]1CC[C@@H](n2/c(=N/C(=O)c3ccc(F)cc3)[nH]c3cnc(N4CCN(C)CC4)cc32)CC1` [Example 225, (E)-4-Fluoro-N-(1-(cis-4-(isopropylcarbamoyl)cyclohexyl)-6-(4-methylpiperazin-1-yl)-1H-imidazo[4,5-c]pyridin-2(3H)-ylidene)benzamide], the IC50 was less than 50 nM.

In turn, `CC(C)NC(=O)[C@H]1CC[C@@H](n2/c(=N/C(=O)c3ccc(F)cc3)[nH]c3cnc(NCC(C)(C)O)cc32)CC1` [Example 226, (E)-4-Fluoro-N-(6-(2-hydroxy-2-methylpropylamino)-1-(cis-4-(isopropylcarbamoyl)cyclohexyl)-1H-imidazo[4,5-c]pyridin-2(3H)-ylidene)benzamide] came in with an IC50 of less than 50 nM.

Compound `CC(C)C(=O)N[C@H]1CC[C@@H](n2/c(=N/C(=O)c3ccc(F)cc3)[nH]c3ccc(CN4CCC(C(C)(C)O)CC4)cc32)CC1` [Example 227, (E)-4-Fluoro-N-(6-((4-(2-hydroxypropan-2-yl)piperidin-1-yl)methyl)-1-(cis-4-isobutyramidocyclohexyl)-1H-benzo[d]imidazol-2(3H)-ylidene)benzamide] came in with an IC50 of 50 to 100 nM.

As for `CC(C)C(=O)N[C@H]1CC[C@@H](n2/c(=N/C(=O)c3cccc(F)c3)[nH]c3ccc(CN4CCC(C(C)(C)O)CC4)cc32)CC1` [Example 228, (E)-3-Fluoro-N-(6-((4-(2-hydroxypropan-2-yl)piperidin-1-yl)methyl)-1-(cis-4-isobutyramidocyclohexyl)-1H-benzo[d]imidazol-2(3H)-ylidene)benzamide], the IC50 lay in the range of 100 to 1000 nM.

Regarding `CC(=O)N[C@H]1CC[C@H](n2/c(=N/C(=O)c3ccc(F)cc3)[nH]c3ccc(CN4CCC(C(C)(C)O)CC4)cc32)CC1` [Example 229, (E)-N-(1-(trans-4-Acetamidocyclohexyl)-6-((4-(2-hydroxypropan-2-yl)piperidin-1-yl)methyl)-1H-benzo[d]imidazol-2(3H)-ylidene)-4-fluorobenzamide], the IC50 is 50 to 100 nM.

In the case of `CC(C)NC(=O)[C@H]1CC[C@@H](n2/c(=N/C(=O)c3ccc(F)cc3)[nH]c3ccc(CN4CCn5c(nnc5C(C)(C)O)C4)cc32)CC1` [Example 230, (E)-4-Fluoro-N-(6-((3-(2-hydroxypropan-2-yl)-5,6-dihydro-[1,2,4]-triazolo[4,3-a]pyrazin-7(8H)-yl)methyl)-1-(cis-4-(isopropylcarbamoyl)cyclohexyl)-1H-benzo[d]imidazol-2(3H)-ylidene)benzamide], the IC50 was less than 50 nM.

Regarding `CC(C)(O)C1CCN(Cc2ccc3[nH]/c(=N\C(=O)c4cccc(F)c4)n([C@H]4CC[C@@H](C(N)=O)CC4)c3c2)CC1` [Example 231], the IC50 was less than 50 nM.

`C=CCNS(=O)(=O)c1cccc(C(=O)/N=c2\[nH]c3ccc(CN4CCC(C(C)(C)O)CC4)cc3n2[C@H]2CC[C@@H](C(N)=O)CC2)c1` [Example 232, (E)-3-(N-Allylsulfamoyl)-N-(1-(cis-4-carbamoylcyclohexyl)-6-((4-(2-hydroxypropan-2-yl)piperidin-1-yl)methyl)-1H-benzo[d]imidazol-2(3H)-ylidene)benzamide] yielded an IC50 of less than 50 nM.

`CC(C)(O)C1CCN(Cc2ccc3[nH]/c(=N\C(=O)c4ccc(F)cc4)n([C@H]4CC[C@H](C(N)=O)CC4)c3c2)CC1` [Example 233, (E)-N-(1-(trans-4-Carbamoylcyclohexyl)-6-((4-(2-hydroxypropan-2-yl)piperidin-1-yl)methyl)-1H-benzo[d]imidazol-2(3H)-ylidene)-4-fluorobenzamide] displayed an IC50 of 50 to 100 nM.

In the case of `CC(C)(O)C1CCN(Cc2ccc3[nH]/c(=N\C(=O)c4cccc(F)c4)n([C@H]4CC[C@H](C(N)=O)CC4)c3c2)CC1` [Example 234, (E)-N-(1-(trans-4-Carbamoylcyclohexyl)-6-((4-(2-hydroxypropan-2-yl)piperidin-1-yl)methyl)-1H-benzo[d]imidazol-2(3H)-ylidene)-3-fluorobenzamide], the IC50 is 100 to 1000 nM.
